In article PMC8597055, “Exploration of Pyrazolo[1,5‐a]pyrimidines as Membrane‐Bound Pyrophosphatase Inhibitors” (Chemmedchem, 2021):
Several values for one entry are separate records, joined by “and”; a condition that tells them apart may be missing. Equal entries are not always repeated. Entries after “also recorded” stand apart in the source; their conditions may differ. Where two headings read alike, the source gives them in different places.

Assays:
[1] = biological target: T1, Thermotoga maritima mPPase (TmPPase) (Thermotoga maritima, UniProt Q9S5X0); assay: TmPPase inhibition assay (96-well); format: biochemical; details: for IC50 [CI95%] / IC50: TmPPase inhibition, NA = IC50 not assigned
T1 sequence (Q9S5X0 whole entry): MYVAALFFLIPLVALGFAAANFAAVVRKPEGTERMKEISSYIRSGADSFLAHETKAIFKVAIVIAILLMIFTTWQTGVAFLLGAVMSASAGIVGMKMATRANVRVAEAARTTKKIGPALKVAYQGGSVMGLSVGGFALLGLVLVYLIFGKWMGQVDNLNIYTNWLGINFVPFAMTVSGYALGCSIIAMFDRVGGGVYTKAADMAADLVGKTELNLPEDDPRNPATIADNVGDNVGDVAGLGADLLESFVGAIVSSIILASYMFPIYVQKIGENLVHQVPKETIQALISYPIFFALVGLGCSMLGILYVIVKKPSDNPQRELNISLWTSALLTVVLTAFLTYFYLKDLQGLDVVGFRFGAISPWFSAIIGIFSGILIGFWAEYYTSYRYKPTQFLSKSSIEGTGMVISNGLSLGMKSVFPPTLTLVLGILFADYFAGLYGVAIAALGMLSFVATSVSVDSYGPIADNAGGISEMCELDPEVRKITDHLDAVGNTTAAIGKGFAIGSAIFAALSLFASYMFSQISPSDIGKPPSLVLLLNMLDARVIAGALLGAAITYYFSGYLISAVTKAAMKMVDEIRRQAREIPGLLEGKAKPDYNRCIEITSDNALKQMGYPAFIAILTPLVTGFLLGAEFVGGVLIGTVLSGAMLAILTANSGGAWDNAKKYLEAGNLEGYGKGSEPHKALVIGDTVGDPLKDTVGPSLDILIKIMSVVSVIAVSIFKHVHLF
Source text: We started from the previously identified 5‐arylisoxazole‐3‐carboxylate core present in 2–5 (Figure 1, highlighted in blue). Using KNIME,[30] we did a substructure search for commercial analogues in the ZINC12 database[31] […] Therefore, we manually picked compounds from a diverse collection provided by a single vendor (Ambinter, 174 matches for the substructure query). Out of the search results, we selected fifteen isoxazoles for testing in vitro. For all compounds in this manuscript, we tested activity using a 96‐well based assay that detects the inhibition of TmPPase.[22, 23, 24]
(§1) All commercially obtained compounds had purities >90 % as specified by the vendor. Synthesized compounds were >95 % pure as determined by LC–MS and characterized by HRMS. The inhibition assay was carried out with purified TmPPase as previously reported.[22, 23, 24] The best hits 17 a, 19 a, and 20 a, were validated using eight compound concentrations in triplicate. Further hit validation was done against the purified mPPase from P. falciparum (PfPPase‐VP1) expressed in baculovirus‐infected insect cells (expression, purification and further enzyme analysis will be described in more detail elsewhere). 4 μL of the purified PfPPase‐VP1 (2.0 mg/mL) was reactivated in 96 μL of reactivation buffer, i. e. 20 mM 2‐(N‐morpholino)ethanesulfonic acid (MES) pH 6.5, 3.5 % (v/v) glycerol, 2 mM dithiothreitol (DTT) and 12 mg/mL L‐α‐phosphatidylcholine from soybean. For each tube strip, 3 μL of the reactivated PfPPase‐VP1 was added into 12 μL of reaction buffer (200 mM Tris‐Cl pH 8.0, 8.0 mM MgCl2, 333 mM KCl, 67 mM NaCl) and 25 μL of inhibitor solution. The reaction mixtures were incubated at 50 °C for 5 min and the assay was started with the addition of 10 μL of 2 mM sodium pyrophosphate and further incubation at 50 °C for 45 min. The reaction termination and colour development were done as earlier described.[22, 23, 24]
6 IC50 plots from the TmPPase inhibition assay
The blue and black curves refer to compounds presented already in the main article and only shown in the Supporting Information, respectively. IC50, half maximal inhibitory concentration; CI95%, half maximal inhibitory concentration expressed as a 95% confidence interval (given in square brackets); […]
IC50 determinations were done using R 3.6.1[2] and the n-parameter logistic regression (nplr) package[3] version 0.1.7. In this package, the weighted nplr, given x (compound concentrations) and y values (activity) is calculated using Richard’s equation (eq 1) where B and T are the bottom and top asymptotes, respectively; b and xmid are the Hill slope and the x coordinate at inflexion point, respectively; and s is an asymmetric coefficient. The model parameters were simultaneously optimized using non-linear minimization, using a sum of squared errors.[4] The standard error of the model, defined as the squared error on the fitted values, is used to estimate a confidence interval at 95% on the predicted IC50 values.

[2] = biological target: purified mPPase from P. falciparum (PfPPase-VP1) (Plasmodium falciparum, UniProt Q8IKR1); assay: PfPPase-VP1 inhibition assay; format: biochemical; details: three replicates
Chain of purified mPPase from P. falciparum (PfPPase-VP1) (Q8IKR1 entry or part of it): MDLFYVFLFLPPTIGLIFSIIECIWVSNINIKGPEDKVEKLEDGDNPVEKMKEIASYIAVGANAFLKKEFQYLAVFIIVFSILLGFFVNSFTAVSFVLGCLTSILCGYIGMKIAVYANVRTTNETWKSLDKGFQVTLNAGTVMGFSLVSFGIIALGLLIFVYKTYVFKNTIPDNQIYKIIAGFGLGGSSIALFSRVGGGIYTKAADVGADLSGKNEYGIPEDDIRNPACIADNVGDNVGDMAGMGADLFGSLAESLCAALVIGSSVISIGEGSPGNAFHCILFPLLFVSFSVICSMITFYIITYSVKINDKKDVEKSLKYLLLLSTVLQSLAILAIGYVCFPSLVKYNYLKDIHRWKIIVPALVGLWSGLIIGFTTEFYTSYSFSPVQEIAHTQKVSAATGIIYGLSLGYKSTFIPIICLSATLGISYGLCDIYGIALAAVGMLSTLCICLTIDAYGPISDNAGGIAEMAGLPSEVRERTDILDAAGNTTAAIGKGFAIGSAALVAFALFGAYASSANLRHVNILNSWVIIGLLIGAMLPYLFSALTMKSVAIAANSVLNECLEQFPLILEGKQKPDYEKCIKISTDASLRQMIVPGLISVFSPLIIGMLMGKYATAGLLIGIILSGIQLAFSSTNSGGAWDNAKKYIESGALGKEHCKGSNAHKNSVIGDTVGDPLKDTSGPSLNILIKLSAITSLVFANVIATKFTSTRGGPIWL
Procedure: Further hit validation was done against the purified mPPase from P. falciparum (PfPPase‐VP1) expressed in baculovirus‐infected insect cells. […] Overall, these compounds have higher IC50 values for PfPPase‐VP1 than for TmPPase.
as §1

[3] = Colloidal aggregation by nephelometry under TmPPase assay conditions; format: physicochemical
Procedure: In order to rule out a cause of false positives, colloidal aggregation in the TmPPase model assay was evaluated for compounds 17 a, 19 a and 20 a at six concentrations (100 μM, 50 μM, 20 μM, 10 μM, 1 μM, and 0.1 μM) using the assay conditions (Figure S3).
3 Aggregation data for 17a, 19a and 20a (Figure S3)
Potential colloidal aggregation in the TmPPase model system was studied by nephelometric methods using Nepheloskan Ascent® (Labsystems, Finland). The original assay conditions were simulated, and the light scattering of potential aggregates in the mixture was studied at six concentrations (100 µM, 50 µM, 20 µM, 10 µM, 1 µM and 0.1 µM). Aggregation of the blank and compounds 17a, 19a and 20a was measured as quadruplicates from one independent experiment at three different voltages (300 V, 400 V and 500 V) at room temperature. […]
values at 10 µM, 1 µM and 0.1 µM were similar to those observed by the blank, indicating merely […]
Figure S3. Aggregation data for compounds 17a, 19a and 20a. The data, measured in relative nephelometric units (RNU), is shown as the mean ± SD and normalized to the blank.
(1 picture or pasted object on this page, not shown here)

[4] = biological target: T1, Thermotoga maritima mPPase (TmPPase); parameters: method as in PMID 31131322, PMID 32292570; details: previously reported inhibitors, read-out: IC50 [CI95%]; cited from earlier work
[5] = test system: Plasmodium falciparum parasite strain 3D7; assay: P. falciparum survival (growth) assay in erythrocyte culture, SYBR Green I; format: cell-based; details: Plasmodium falciparum, 3D7, Erythrocyte, 72 h, strain 3D7 in human erythrocytes
Procedure: Plasmodium falciparum parasite strain 3D7 was used for testing the antiplasmodial activity of the test compounds. The parasite was maintained in culture as described previously.[37] Briefly, parasites were cultured in O+ human erythrocytes at 5 % haematocrit in RPMI‐1640 medium supplemented with 0.5 % Albumax II (Gibco, Carlsbad, CA, USA), 200 μM hypoxanthine (Sigma, St. Louis, MO, USA) and 20 μg/mL gentamycin (Gibco). Parasites were synchronized with the sorbitol method as described.[38] Test compounds were dissolved in DMSO to make a stock solution of 10 mM or 50 mM. Two‐fold serial dilutions of the test compounds were made in the culture medium to cover either the range of 100 μM–100 nM or 400 μM–390 nM. 50 μL of each dilution were mixed in 96‐well plate with 150 μL of 2 % haematocrit of 0.5 % parasitemia (ring stage). Compound dilutions were also mixed with 150 μL of 2 % haematocrit of uninfected erythrocytes to serve as baselines for the activity of the coloured compounds. DMSO concentration in the highest compound concentration was 0.8 %. After 72 h incubation at 37 °C, the parasite growth was quantified using fluorescent SYBR Green I®‐based assay as described.[39] The half‐maximal inhibitory concentration (IC50) of the test compounds was assessed using the non‐linear regression fit model in Prism 7 (GraphPad Software, San Diego, CA, USA). The potent anti‐malarial drug, artemisinin, was used in parallel as a positive control. Each concentration of the test compounds was tested in duplicate and the assay was repeated three times. The mean and standard deviation of the three repeats were used to calculate the IC50.

[6] = IC50, purified PfPPase-VP1, 50 °C

SMILES	IC50 [CI95%] [1]	IC50 ([1]; read-out: IC50 [CI95%])	other results
CCOC(=O)c1cc(-c2cc(C)cc(C)c2)n2nc(Br)cc2n1 [15 a, Ethyl 2‐bromo‐7‐(3,5‐dimethylphenyl)pyrazolo[1,5‐a]pyrimidine‐5‐carboxylate]	weak activity	120 µM	–
CCOC(=O)c1cc(C2CC2)n2nc(Br)cc2n1 [15 b, Ethyl 2‐bromo‐7‐cyclopropylpyrazolo[1,5‐a]pyrimidine‐5‐carboxylate]	only slightly effective	150 µM	–
Cc1cc(C)cc(-c2cc(C(=O)O)nc3cc(Br)nn23)c1 [16 a, 2‐Bromo‐7‐(3,5‐dimethylphenyl)pyrazolo[1,5‐a]pyrimidine‐5‐carboxylic acid]	inactive	–	–
O=C(O)c1cc(C2CC2)n2nc(Br)cc2n1 [16 b, 2‐Bromo‐7‐cyclopropylpyrazolo[1,5‐a]pyrimidine‐5‐carboxylic acid]	completely unsuccessful	–	IC50 [CI95%] ([1]; listed as 16b): Inactive
O=C(Oc1ccccc1Br)c1cc(C2CC2)n2nc(Br)cc2n1 [17 b, 2‐Bromophenyl 2‐bromo‐7‐cyclopropylpyrazolo[1,5‐a]pyrimidine‐5‐carboxylate]	completely unsuccessful	–	IC50 [CI95%] ([1]; listed as 17b): Inactive
C=Cc1cc2nc(C(=O)OCC)cc(-c3cc(C)cc(C)c3)n2n1 [18 a, Ethyl 7‐(3,5‐dimethylphenyl)‐2‐vinylpyrazolo[1,5‐a]pyrimidine‐5‐carboxylate]	–	54 µM	fold improvement in the inhibition compared to 2-bromo analogue 15 a ([1]; TmPPase, 18 a versus 15 a): 2.2 fold
C=Cc1cc2nc(C(=O)OCC)cc(C3CC3)n2n1 [18 b, Ethyl 7‐cyclopropyl‐2‐vinylpyrazolo[1,5‐a]pyrimidine‐5‐carboxylate]	Inactive	–	–
C=Cc1cc2nc(C(=O)O)cc(-c3cc(C)cc(C)c3)n2n1 [19 a, 7‐(3,5‐Dimethylphenyl)‐2‐vinylpyrazolo[1,5‐a]pyrimidine‐5‐carboxylic acid]	–	–	IC50 ([1]; IC50 [CI95%]): 14 µM; IC50 [2, 6]: 130 µM; colloidal aggregation ([3]; six concentrations 100–0.1 μM): no detectable aggregation
C=Cc1cc2nc(C(=O)O)cc(C3CC3)n2n1 [19 b, 7‐Cyclopropyl‐2‐vinylpyrazolo[1,5‐a]pyrimidine‐5‐carboxylic acid]	Inactive	–	–
C=Cc1cc2nc(C(=O)Oc3ccccc3Br)cc(-c3cc(C)cc(C)c3)n2n1 [20 a, 2‐Bromophenyl 7‐(3,5‐dimethylphenyl)‐2‐vinylpyrazolo[1,5‐a]pyrimidine‐5‐carboxylate]	–	–	IC50 ([1]; IC50 [CI95%]): 18 µM; IC50 [2, 6]: 74 µM; concentration of aggregate formation ([3]; TmPPase assay conditions, six concentrations 100–0.1 μM): above 20 μM; colloidal aggregation ([3]; at 10 µM, 1 µM and 0.1 µM): negligible/no detectable aggregation; colloidal aggregation ([3]; at 100 µM, 50 µM and 20 µM): aggregate formation
C=Cc1cc2nc(C(=O)Oc3ccccc3Br)cc(C3CC3)n2n1 [20 b, 2‐Bromophenyl 7‐cyclopropyl‐2‐vinylpyrazolo[1,5‐a]pyrimidine‐5‐carboxylate]	Inactive	–	–
C=Cc1cc2nc(C(=O)NCCN)cc(-c3cc(C)cc(C)c3)n2n1 [21 a, N ‐(2‐Aminoethyl)‐7‐(3,5‐dimethylphenyl)‐2‐vinylpyrazolo[1,5‐a]pyrimidine‐5‐carboxamide]	–	72 µM	fold higher inhibition than cyclopropyl-substituted analogue 21 b ([1]; TmPPase, 21 a versus 21 b): 3.6 fold
C=Cc1cc2nc(C(=O)NCCN)cc(C3CC3)n2n1 [21 b, N ‐(2‐Aminoethyl)‐7‐cyclopropyl‐2‐vinylpyrazolo[1,5‐a]pyrimidine‐5‐carboxamide]	–	260 µM	–
Nc1nc2ccc(CNC(=O)c3cc4ccccc4[nH]3)cc2s1 [compound 1]	–	–	IC50 [4]: 2.7 µM
Cc1cccc(-c2cc(C(=O)Oc3ccccc3Br)no2)c1 [compound 3]	–	–	IC50 [4]: 6.1 µM
CC(C)(C)c1cccc(-c2cc(C(=O)Oc3ccccc3Br)no2)c1 [compound 4]	–	–	IC50 [4]: 6.7 µM
CCOC(=O)c1cc(-c2ccc(OC)c(S(=O)(=O)Nc3ccc4c(c3)OCO4)c2)on1 [compound 5]	–	–	IC50 [4]: 36 µM
CCOC(=O)c1cc(-c2ccc(OC)c(S(=O)(=O)N3CCCSc4ccccc43)c2)on1 [compound 6]	–	5.4 µM	–
CCOC(=O)c1cc(-c2ccc(OC)c(S(=O)(=O)N3c4ccccc4CC3C)c2)on1 (stereo not shown) [compound 7]	–	56 µM	–
CCOC(=O)c1cc(-c2ccc(OC)c(S(=O)(=O)N3CC(C)CSc4ccccc43)c2)on1 (stereo not shown) [compound 8]	Inactive; also recorded: not tolerated	–	–
CCOC(=O)c1cc(-c2ccc(OC)c(S(=O)(=O)N3CCSc4ccccc43)c2)on1 [compound 9]	Inactive; also recorded: loss of all TmPPase inhibitory activity	–	–
CCOC(=O)c1cc(-c2ccc(OC)c(S(=O)(=O)N3CC(C)Sc4ccccc43)c2)on1 (stereo not shown) [compound 10]	Inactive; also recorded: loss of all TmPPase inhibitory activity	–	–
COc1ccccc1S(=O)(=O)Nc1ccc(N(C)C)cc1 [compound 11]	–	< 25 µM and 14 µM	ligand efficiency (LE) ([1]; computed from pIC50 and heavy atom count): 0.23
COc1cc(C2c3c(-c4cc(Cl)c(C)cc4O)n[nH]c3C(=O)N2Cc2ccccc2)ccc1O (stereo not shown) [compound 12]	–	< 25 µM and 25 µM	IC50 ([2]; purified PfPPase-VP1, 50 °C): comparably weak; IC50 ([2]; purified PfPPase-VP1, 50 °C, read-out: IC50): 180 µM; IC50 [5]: 3.6 µM
